# In paper PMC3179504 (PLoS ONE, 2011):
# Entries after “also recorded” stand apart in the source; their conditions may differ.
# How the values were obtained:
# HEK293-NK1R cells = experiment: SP-induced membrane blebbing in HEK293-NK1R cells (phase-contrast / DIC / confocal microscopy); assay type: cell-based; settings: for effect of colchicine on SP-induced blebbing: colchicine pretreatment
# RhoA = settings: microtubule depolymerizing reagent; ref [24], [25]; cited from earlier work
# From the text: (§1) It has been shown that Rho GTPases are regulated by microtubule dynamics. […] One of the major intracellular signaling molecules involved in the regulation of tubulin function is p21- activated kinase 1 (PAK), which interacts with a variety of other proteins ...
# T cells = settings: ref [26]; cited from earlier work
# From the text: as §1
# [1] = system: myosin light chain 2 (MLC2) (Ser19); assay type: cell-based, human
# Description: Cells were lysed in lithium dodecyl sulfate (LDS) sample buffer (Invitrogen, Carlsbad, CA), and lysed using a sonic dismembrator model 100 (Fisher Scientific, Hampton, NH). Cell extracts were subjected to LDS polyacrylamide gel electrophoresis and transferred to polyvinylidene difluoride membranes. After blocking with 5% nonfat dry milk in 0.1% Tween 20/TBS, membranes were incubated with the primary antibody. […] The following non phospho-specific antibodies were used: Beta-Actin and PAK1/2/3 (Cell Signaling Technology, Beverly, MA). Secondary antibodies conjugated to horseradish peroxidase were either anti-rabbit (Biorad, Hercules, CA), or anti-mouse (Cell Signaling Technology, Beverly, MA). Bands were visualized by enhanced chemiluminescence using SuperSignal® West Pico Chemiluminescent Substrate (Thermo Scientific, Rockford, IL) on a VersaDoc Imager (BioRad, Hercules, CA).
compound,measurement,setting,value
"Oc1ccc2ccccc2c1SSc1c(O)ccc2ccccc12 [IPA3, 1, 1′-Dithiodi-2-naphthtol]",effect of IPA3 on SP-induced blebbing,"HEK293-NK1R cells; IPA3 pretreatment, phase-contrast",not in HEK293 cells; also recorded: no effect on HEK293- NK1R cell's ability to bleb
COC(=O)Nc1nc2ccc(C(=O)c3cccs3)cc2[nH]1 [Nocodazole],RhoA activation by nocodazole,RhoA,induces RhoA activation
same,effect of nocodazole on T cell migratory phenotype,T cells,converts T cells from the classical lamellipodial/uropod migratory phenotype to a blebbing migratory phenotype
COc1cc2c(c(OC)c1OC)-c1ccc(OC)c(=O)cc1[C@@H](NC(C)=O)CC2 [colchicine],cell morphology after colchicine,HEK293-NK1R cells; colchicine,causing the cells to appear less adherent and to round up
same,effect of colchicine on SP-induced blebbing,HEK293-NK1R cells,not able to block the SP-induced blebbing
same,effect of colchicine on SP-induced blebbing,HEK293-NK1R cells; listed as Colchicine,unable to block bleb formation
C3 transferase,effect of C3 transferase on MLC phosphorylation,[1],decrease in MLC phosphorylation
